From PMC4503722, “Novel Phenotypic Outcomes Identified for a Public Collection of Approved Drugs from a Publicly Accessible Panel of Assays” (PLoS ONE, 2015)

Tests used:
[1] = tested on: endothelial tube formation in co-cultures of ECFCs and ADSCs treated with VEGF; assay: cells; type: cell-based, human; conditions: for IC50: read-out: VEGF_ADSC\ECFC Angio CD31 TubeArea summarized IC50
[2] = tested on: ECFC/ADSC co-culture cell nuclei number; conditions: for IC50: read-out: VEGF_ADSC\ECFC Angio Hoechst NucArea summarized IC50
HeLa cells = assay: cells; type: cell-based; conditions: for Hela CellCycMod PI 2N IC50/EC50: assay number 14; for Hela CellCycMod PI 4N IC50/EC50: assay number 16; for Hela CellCycMod PI MI IC50/EC50: assay number 17; for Hela CellCycMod PI Cell Number IC50/EC50: assay number 18

NCCNc1ccc(NCCN)c2c1C(=O)c1ccncc1C2=O [NCGC00274280-01]
VEGF_ADSC\ECFC Angio CD31 TubeArea IC50/EC50 [1]: 0.0465 µM | VEGF_ADSC\ECFC Angio Hoechst NucArea IC50/EC50 [2]: > 10 µM | Hela CellCycMod PI 2N IC50/EC50 (HeLa cells): 0.042 µM | Hela CellCycMod PI 4N IC50/EC50 (HeLa cells): 0.04829 µM | Hela CellCycMod PI MI IC50/EC50 (HeLa cells): > 10 µM | Hela CellCycMod PI Cell Number IC50/EC50 (HeLa cells): 0.04206 µM

COc1ccc2cc3[n+](cc2c1OC)CCc1cc2c(cc1-3)OCO2 [NCGC00016526-07]
VEGF_ADSC\ECFC Angio CD31 TubeArea IC50/EC50 [1]: 2.6815 µM | VEGF_ADSC\ECFC Angio Hoechst NucArea IC50/EC50 [2]: > 10 µM | Hela CellCycMod PI 2N IC50/EC50 (HeLa cells): > 10 µM | Hela CellCycMod PI 4N IC50/EC50 (HeLa cells): > 10 µM | Hela CellCycMod PI MI IC50/EC50 (HeLa cells): > 10 µM | Hela CellCycMod PI Cell Number IC50/EC50 (HeLa cells): > 10 µM

Cc1ccc(Nc2nccc(N(C)c3ccc4c(C)n(C)nc4c3)n2)cc1S(N)(=O)=O [NCGC00188865-03]
VEGF_ADSC\ECFC Angio CD31 TubeArea IC50/EC50 [1]: 0.0465 µM | VEGF_ADSC\ECFC Angio Hoechst NucArea IC50/EC50 [2]: > 10 µM | Hela CellCycMod PI 2N IC50/EC50 (HeLa cells): > 10 µM | Hela CellCycMod PI S Phase IC50/EC50 (HeLa cells; assay number 15, S phase): > 10 µM | Hela CellCycMod PI 4N IC50/EC50 (HeLa cells): > 10 µM | Hela CellCycMod PI MI IC50/EC50 (HeLa cells): > 10 µM | Hela CellCycMod PI Cell Number IC50/EC50 (HeLa cells): > 10 µM

CCOC(=O)C1=C[C@]2(CC)CCCN3CCc4c(n1c1ccccc41)[C@@H]32 [NCGC00018204-13]
IC50/EC50, VEGF_ADSC\ECFC Angio CD31 TubeArea (assay number 2) [1]: > 10 µM | IC50/EC50, VEGF_ADSC\ECFC Angio Hoechst NucArea (assay number 3) [2]: > 10 µM

Cc1c(C(=O)NN2CCCCC2)nn(-c2ccc(Cl)cc2Cl)c1-c1ccc(Cl)cc1 [NCGC00164572-02]
IC50/EC50, VEGF_ADSC\ECFC Angio CD31 TubeArea (assay number 2) [1]: > 10 µM | IC50/EC50, VEGF_ADSC\ECFC Angio Hoechst NucArea (assay number 3) [2]: > 10 µM

CCCCc1oc2ccc(NS(C)(=O)=O)cc2c1C(=O)c1ccc(OCCCN(CCCC)CCCC)cc1 [NCGC00188863-02]
VEGF_ADSC\ECFC Angio CD31 TubeArea IC50/EC50 [1]: 2.754 µM | VEGF_ADSC\ECFC Angio Hoechst NucArea IC50/EC50 [2]: 7.561 µM

O=[N+]([O-])C(Br)(CO)CO [NCGC00164057-03]
IC50 [1]: > 10 µM | IC50 [2]: > 10 µM

CCCCC(=O)O[C@H]1CC[C@H]2[C@@H]3CCc4cc(O)ccc4[C@@H]3CC[C@]12C [NCGC00022275-03]
IC50/EC50, VEGF_ADSC\ECFC Angio CD31 TubeArea (assay number 2) [1]: > 10 µM | IC50/EC50, VEGF_ADSC\ECFC Angio Hoechst NucArea (assay number 3) [2]: 8.298 µM

COc1cccc(CCc2ccccc2OCC(CN(C)C)OC(=O)CCC(=O)O)c1.Cl (stereo not shown) [NCGC00167489-03]
VEGF_ADSC\ECFC Angio CD31 TubeArea IC50/EC50 [1]: > 10 µM | VEGF_ADSC\ECFC Angio Hoechst NucArea IC50/EC50 [2]: > 10 µM

CC(=O)O[C@H]1C[C@H](O[C@H]2[C@@H](O)C[C@H](O[C@@H]3[C@@H](O)C[C@H](O[C@H]4CC[C@@]5(C)[C@H](CC[C@@H]6[C@H]5C[C@@H](O)[C@]5(C)[C@@H](C7=CC(=O)OC7)CC[C@]65O)C4)O[C@@H]3C)O[C@@H]2C)O[C@H](C)[C@H]1O[C@@H]1O[C@H](CO)[C@@H](O)[C@H](O)[C@@H]1O [NCGC00344547-01]
VEGF_ADSC\ECFC Angio CD31 TubeArea IC50/EC50 [1]: 0.0702 µM | VEGF_ADSC\ECFC Angio Hoechst NucArea IC50/EC50 [2]: 0.2792 µM

CN(C)CCCN1c2ccccc2Sc2ccc(Cl)cc21 [NCGC00015273-19]
IC50 [1]: > 10 µM | IC50 [2]: > 10 µM

CC(=O)Oc1ccc(C2(c3ccc(OC(C)=O)cc3)C(=O)Nc3ccccc32)cc1 [NCGC00159420-04]
IC50/EC50, VEGF_ADSC\ECFC Angio CD31 TubeArea (assay number 2) [1]: > 10 µM | IC50/EC50, VEGF_ADSC\ECFC Angio Hoechst NucArea (assay number 3) [2]: > 10 µM

CN(C)C(=O)Oc1cccc([N+](C)(C)C)c1.[Br-] [NCGC00015730-11]
VEGF_ADSC\ECFC Angio CD31 TubeArea IC50/EC50 [1]: > 10 µM | VEGF_ADSC\ECFC Angio Hoechst NucArea IC50/EC50 [2]: > 10 µM

OCCN1CCN(CCCN2c3ccccc3Sc3ccc(Cl)cc32)CC1 [NCGC00015826-13]
IC50 [1]: > 10 µM | IC50 [2]: > 10 µM

O=C1CC[C@H](C(=O)N2CCCCC2)N1 [NCGC00182992-01]
VEGF_ADSC\ECFC Angio CD31 TubeArea IC50/EC50 [1]: > 10 µM | VEGF_ADSC\ECFC Angio Hoechst NucArea IC50/EC50 [2]: > 10 µM

Oc1ccc(/C=C/c2cc(O)cc(O)c2)cc1 [NCGC00017352-24]
IC50/EC50, VEGF_ADSC\ECFC Angio CD31 TubeArea (assay number 2) [1]: > 10 µM | IC50/EC50, VEGF_ADSC\ECFC Angio Hoechst NucArea (assay number 3) [2]: > 10 µM

COc1ccc(CCN2CCC(Nc3nc4ccccc4n3Cc3ccc(F)cc3)CC2)cc1 [NCGC00016913-14]
VEGF_ADSC\ECFC Angio CD31 TubeArea IC50/EC50 [1]: > 10 µM | VEGF_ADSC\ECFC Angio Hoechst NucArea IC50/EC50 [2]: > 10 µM

O=C(O)C1CCC1 [NCGC00253667-01]
IC50 [1]: > 10 µM | IC50 [2]: > 10 µM

O=NN(CCCl)C(=O)NC1CCCCC1 [NCGC00167466-02]
VEGF_ADSC\ECFC Angio CD31 TubeArea IC50/EC50 [1]: > 10 µM | VEGF_ADSC\ECFC Angio Hoechst NucArea IC50/EC50 [2]: > 10 µM

CC(C(O)c1ccccc1)N(C)C/C=C/c1ccccc1 (stereo not shown) [NCGC00249896-01]
VEGF_ADSC\ECFC Angio CD31 TubeArea IC50/EC50 [1]: > 10 µM | VEGF_ADSC\ECFC Angio Hoechst NucArea IC50/EC50 [2]: > 10 µM

CCN(CC)C(=O)/C(C#N)=C/c1cc(O)c(O)c([N+](=O)[O-])c1 [NCGC00164555-03]
VEGF_ADSC\ECFC Angio CD31 TubeArea IC50/EC50 [1]: > 10 µM | VEGF_ADSC\ECFC Angio Hoechst NucArea IC50/EC50 [2]: > 10 µM

CC[N+](CC)(CC)CCOc1ccc(/C=C/c2ccccc2)cc1 [NCGC00025122-02]
IC50 [1]: > 10 µM | IC50 [2]: > 10 µM

O=C1CC(c2ccc(Cl)cc2)CC(=O)N1 [NCGC00262922-01]
IC50/EC50, VEGF_ADSC\ECFC Angio CD31 TubeArea (assay number 2) [1]: > 10 µM | IC50/EC50, VEGF_ADSC\ECFC Angio Hoechst NucArea (assay number 3) [2]: > 10 µM

Oc1cc(Cl)ccc1Oc1ccc(Cl)cc1Cl [NCGC00159417-05]
IC50 [1]: > 10 µM | IC50 [2]: 8.1 µM
